# According to PubChem BioAssay (NCI):
#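 Step 1: Grow cells in 96-well plates. Step 2: Expose to compound for 48 hours at 5 concentrations. Step 3: Interpolate endpoints linearly; if unreached, use highest concentration. TGI: total growth inhibition.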
# How the values were obtained:
# Assay in all cases: NCI tumour cell line growth inhibition, 48 h
# DLD-1 colon = tested on: DLD-1 colon
# M19-MEL melanoma = tested on: M19-MEL melanoma
# SN12K1 renal = tested on: SN12K1 renal
# P388/ADR leukemia = tested on: P388/ADR leukemia
# HOP-18 NSCLC = tested on: HOP-18 NSCLC
# P388 leukemia = tested on: P388 leukemia
# BT-549 breast = tested on: BT-549 breast
# KM20L2 colon = tested on: KM20L2 colon
# LXFL 529 NSCLC = tested on: LXFL 529 NSCLC
# SNB-78 CNS = tested on: SNB-78 CNS
smiles,measurement,setting,value
COc1cc(C2c3cc4c(cc3[C@@H](Nc3cccc(CO)c3)C3COC(=O)[C@H]23)OCO4)cc(OC)c1O (stereo partly drawn),TGI,DLD-1 colon,4.56 µM
same,TGI,M19-MEL melanoma,32.6 µM
same,TGI,SN12K1 renal,5.53 µM
same,TGI,P388/ADR leukemia,1.86 µM
same,TGI,HOP-18 NSCLC,17.4 µM
same,TGI,P388 leukemia,0.369 µM
O=c1[nH]nc(NCc2ccccc2)c2nnn(Cc3ccccc3)c12,TGI,BT-549 breast,> 100 µM
C=CCN1/C(=C(\C#N)c2nc3ccccc3[nH]2)Sc2c1nc[nH]c2=O,TGI,KM20L2 colon,> 100 µM
same,TGI,DLD-1 colon,> 100 µM
same,TGI,M19-MEL melanoma,> 100 µM
same,TGI,LXFL 529 NSCLC,> 100 µM
same,TGI,SNB-78 CNS,> 100 µM
COc1nc2cccc(C(O)c3ccccc3)c2nc1-c1ccccc1 (stereo not drawn),TGI,BT-549 breast,46.3 µM
